US10836763B2, “5 to 7 membered heterocyclic amides as JAK inhibitors” (priority 2018, dated 2020)
Like-named read-outs stand apart in the source and are kept apart here.

Key:
Tyk2 = Tyk2 (Homo sapiens (Human), UniProt P29597); assay: Biochemical JAK kinase assay (LanthaScreen), Tyk2
Description: Assay 1: Biochemical JAK Kinase Assays
A panel of four LanthaScreen JAK biochemical assays (JAK1, 2, 3 and Tyk2) were carried in a common kinase reaction buffer (50 mM HEPES, pH 7.5, 0.01% Brij-35, 10 mM MgCl2, and 1 mM EGTA). Recombinant GST-tagged JAK enzymes and a GFP-tagged STAT1 peptide substrate were obtained from Life Technologies.
Serially diluted compounds were pre-incubated with each of the four JAK enzymes and the substrate in white 384-well microplates (Corning) at ambient temperature for 1 h. ATP was subsequently added to initiate the kinase reactions in 10 μL total volume, with 1% DMSO. […] Kinase reactions were allowed to proceed for 1 hour at ambient temperature before a 10 μL preparation of EDTA (10 mM final concentration) and Tb-anti-pSTAT1 (pTyr701) antibody (Life Technologies, 2 nM final concentration) in TR-FRET dilution buffer (Life Technologies) was added. The plates were allowed to incubate at ambient temperature for 1 h before being read on the EnVision reader (Perkin Elmer). Emission ratio signals (520 nm/495 nm) were recorded and utilized to calculate the percent inhibition values based on DMSO and background controls.
For dose-response analysis, percent inhibition data were plotted vs. compound concentrations, and IC50 values were determined from a 4-parameter robust fit model with the Prism software (GraphPad Software). Results were expressed as pIC50 (negative logarithm of IC50) and subsequently converted to pKi (negative logarithm of dissociation constant, Ki) using the Cheng-Prusoff equation.

Lung S9 metabolism = type: in vitro ADME, human; settings: for Compound Remaining at 60 min (%) / microsomal CLint at 1 µM: human lung S9, 1 μM compound, 1 mg/mL S9 protein, NADPH and PAPS; for microsomal CLint at 1 µM: lung S9 fraction, pH 7.4, read-out: Clearance; for Sulfate Appearance: qualitative, O-sulfate metabolite peak in human lung S9
Description: Assay 5: Lung S9 Metabolism […] Lung S9 fractions from human (lot 1410245) were purchased from XenoTech LLC (Lenexa, Kans.). NADPH (Sigma Aldrich, N1630) and 3-phosphoadenosine 5-phosphosulfate (PAPS) (Sigma Aldrich, A1651) were purchased from Sigma Aldrich (St. Louis, Mo.). Acetonitrile and water were obtained from VWR (Radnor, Pa.) and were of HPLC grade or better. Raloxifene and formic acid was purchased from Sigma Aldrich (St. Louis, Mo.). Lung S9 incubations were performed in a water bath at 37° C. in a 96-well polypropylene plate. […] All samples were centrifuged at 2250 g for 10 minutes at 5° C. Supernatant (50 μL) was taken from the centrifuged samples and diluted into 100 μL HPLC water containing internal standard. […] Mobile Phase A consisted of Water+0.2% formic acid and Mobile Phase B consisted of acetonitrile+0.2% formic acid. Peak integration was accomplished using Gubbs GMSU software (Gubbs Inc., Alpharetta, Ga.). For each sample, peak area ratios were calculated by dividing the analyte peak area by the internal standard peak area. […] Determination of sulfate metabolite formation was made qualitatively by observation of early-eluting peak in the parent ion channel which, based on historical internal data, corresponded to the O-sulfate metabolite of each parent compound.

[1] = system: TSLP-evoked TARC release in human peripheral blood mononuclear cells; assay: Inhibition of TSLP-evoked TARC release in human peripheral blood mononuclear cells; type: cell-based; settings: read-out: pIC50 ± st. dev., inhibition of TSLP-evoked TARC release (converted)
From the text: Assay 4: Inhibition of TSLP-Evoked TARC Release in Human Peripheral Blood Mononuclear Cells
Thymic stromal lymphopoietin (TSLP) and thymus and activation-regulated chemokine (TARC) are overexpressed in asthmatic airways, and correlate with disease severity. In the lungs, TSLP may be released by bronchial epithelial cells in response to allergens and viral infections. TSLP signals through an IL-7Rα/TSLPR heterodimer found in a broad range of tissues and cell types, including epithelial cells, endothelial cells, neutrophils, macrophages, and mast cells. The binding of TSLP to its receptor induces a conformational change that activates JAK1 and JAK2 to phosphorylate various transcription factors, including STAT3 and STAT5. In immune cells, this triggers a cascade of intracellular events that result in cell proliferation, anti-apoptosis, dendritic cell migration, and production of Th2 cytokines and chemokines. In peripheral blood mononuclear cells (PBMC), TSLP has a proinflammatory effect by activating myeloid dendritic cells to attract and stimulate T cells, a process mediated by the chemoattractant TARC.
The potencies of the test compounds were measured for inhibition of TARC release.
PBMC aliquots (previously isolated from whole blood and frozen in aliquots at −80° C.) from 3 to 5 donors were thawed at 37° C. and added dropwise to 40 mL pre-warmed, sterile-filtered, complete RPMI media in 50 mL Falcon tubes. Cells were pelleted and resuspended in complete media at 2.24×10^6 cells/mL. Cells were seeded at […] (190,000 cells) per well in a tissue culture treated 96-well flat bottom microplate. Cells were allowed to rest for 1 hour at 37° C. with 5% CO2.
Compounds were received as 10 mM stock solutions in DMSO. 3.7-fold serial dilutions were performed to generate 9 concentrations of test compound in DMSO at 300× the final assay test concentration. […] After the 1 hour rest period, 95 µL of 2× compound was added to each well of PBMC, for a final assay concentration range of 33.33 μM to […]. 95 μL of 0.2% DMSO in complete media was added to the untreated control wells. Cells were pre-treated with compound for 1 hour at 37° C. with 5% CO2 prior to stimulation.
Recombinant human TSLP protein was reconstituted at 10 μg/mL in sterile DPBS with 0.1% BSA and stored in aliquots at −20° C. Immediately prior to use, an aliquot was thawed and prepared at 20× the final assay concentration in complete media. 10 μL of 20×TSLP was added to each well of PBMC, for a final assay concentration of 10 ng/mL. 10 μL of complete media was added to the unstimulated control wells. Cells were stimulated in the presence of compound for 48 hours at 37° C. with 5% CO2.
Following stimulation, the cell culture supernatants were harvested and TARC levels were detected by enzyme-linked immunosorbent assay (ELISA), using Human CCL17/TARC Quantikine ELISA Kit (R&D Systems # DDN00) according to the manufacturer's instructions.
For dose response analysis, the log [test compound (M)] was plotted versus the percent response values for each donor, and IC50 values were determined using a nonlinear regression analysis with GraphPad Prism Software using the 4-parameter sigmoidal dose-response algorithm with variable slope. Data are expressed as mean pIC50 (negative decadic logarithm IC50) values calculated from pIC50 values of individual donors and rounded to one decimal place.

[2] = ATP at Km 10 μM, pIC50 converted with Cheng-Prusoff
[3] = PBMC from 3 to 5 donors, TSLP 10 ng/mL, 48 hours, TARC ELISA

Sequence of Tyk2 (P29597 whole entry): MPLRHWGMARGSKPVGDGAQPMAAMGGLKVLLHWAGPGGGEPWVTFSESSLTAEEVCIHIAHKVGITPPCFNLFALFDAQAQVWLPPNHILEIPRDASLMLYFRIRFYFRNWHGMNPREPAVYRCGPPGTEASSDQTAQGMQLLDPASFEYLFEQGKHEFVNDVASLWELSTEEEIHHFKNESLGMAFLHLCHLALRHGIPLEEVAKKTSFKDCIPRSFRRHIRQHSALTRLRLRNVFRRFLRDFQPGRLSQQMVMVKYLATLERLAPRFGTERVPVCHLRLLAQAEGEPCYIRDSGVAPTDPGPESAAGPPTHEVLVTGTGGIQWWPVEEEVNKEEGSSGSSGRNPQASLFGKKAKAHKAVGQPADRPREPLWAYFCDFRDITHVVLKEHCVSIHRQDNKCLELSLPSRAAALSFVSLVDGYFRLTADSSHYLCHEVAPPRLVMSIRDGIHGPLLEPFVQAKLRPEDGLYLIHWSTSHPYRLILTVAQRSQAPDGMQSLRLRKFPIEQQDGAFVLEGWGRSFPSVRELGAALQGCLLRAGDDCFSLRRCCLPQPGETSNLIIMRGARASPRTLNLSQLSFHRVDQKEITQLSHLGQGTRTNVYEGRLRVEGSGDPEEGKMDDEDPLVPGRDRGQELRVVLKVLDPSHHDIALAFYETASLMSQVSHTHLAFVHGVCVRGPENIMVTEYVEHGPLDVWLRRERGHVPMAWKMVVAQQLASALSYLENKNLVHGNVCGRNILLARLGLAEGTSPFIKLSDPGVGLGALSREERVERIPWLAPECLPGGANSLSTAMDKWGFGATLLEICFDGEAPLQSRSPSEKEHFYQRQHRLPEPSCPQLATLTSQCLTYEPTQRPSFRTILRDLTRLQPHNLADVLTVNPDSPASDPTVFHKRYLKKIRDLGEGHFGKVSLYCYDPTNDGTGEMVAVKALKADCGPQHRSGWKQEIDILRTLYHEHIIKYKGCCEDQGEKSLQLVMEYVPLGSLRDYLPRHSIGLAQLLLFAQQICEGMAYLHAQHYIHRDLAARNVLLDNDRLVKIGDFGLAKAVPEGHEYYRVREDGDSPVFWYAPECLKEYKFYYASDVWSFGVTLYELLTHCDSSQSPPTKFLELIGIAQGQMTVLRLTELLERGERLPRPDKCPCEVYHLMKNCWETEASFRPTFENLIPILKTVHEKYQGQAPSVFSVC

Question: What does the source list for CCCN1Cc2[nH]c(-c3n[nH]c4cc(-c5ccc(O)cc5CC)ccc34)nc2C[C@H]1C(=O)N1CCN(CCO)CC1 [Compound 1, (S)-(2-(6-(2-ethyl-4-hydroxyphenyl)-1H-indazol-3-yl)-5-propyl-4,5,6,7-tetrahydro-3H-imidazo[4,5-c]pyridin-6-yl)(4-(2-hydroxyethyl)piperazin-1-yl)methanone]?
Answer: Tyk2 pKi (Tyk2; [2]): 9.0; Compound Remaining at 60 min (%) (Lung S9 metabolism): 78%; microsomal CLint at 1 µM (Lung S9 metabolism): 4.2 µL/min/mg; Sulfate Appearance (Lung S9 metabolism): Yes; IC50 [1, 3]: 79.4 nM

Question: Which results are given for CCCN1Cc2[nH]c(-c3n[nH]c4cc(-c5ccc(O)cc5CC)ccc34)nc2C[C@H]1C(=O)N1C[C@@H]2C[C@H]1CN2C [Compound 2, ((S)-2-(6-(2-ethyl-4-hydroxyphenyl)-1H-indazol-3-yl)-5-propyl-4,5,6,7-tetrahydro-3H-imidazo[4,5-c]pyridin-6-yl)((1S,4S)-5-methyl-2,5-diazabicyclo[2.2.1]heptan-2-yl)methanone]?
Answer: Tyk2 pKi (Tyk2; [2]): 8.9; Compound Remaining at 60 min (%) (Lung S9 metabolism): 81%; microsomal CLint at 1 µM (Lung S9 metabolism): 3.5 µL/min/mg; Sulfate Appearance (Lung S9 metabolism): Yes; IC50 [1, 3]: 158 nM

Question: Which “Tyk2 pKi” value (Tyk2) does the source give for CCc1cc(O)ccc1-c1ccc2c(-c3nc4c([nH]3)CN(C(C)C)[C@H](C(=O)N3CCCN(C)CC3)C4)n[nH]c2c1 [Compound 4, (S)-(2-(6-(2-ethyl-4-hydroxyphenyl)-1H-indazol-3-yl)-5-isopropyl-4,5,6,7-tetrahydro-3H-imidazo[4,5-c]pyridin-6-yl)(4-methyl-1,4-diazepan-1-yl)methanone] here?
Answer: Its value is 9.0.

Question: What about the “Compound Remaining at 60 min (%)” value (Lung S9 metabolism) of the same molecule?
Answer: The value was 88%.

Question: What about the microsomal CLint at 1 µM (Lung S9 metabolism) of the same molecule?
Answer: Its microsomal CLint at 1 µM is 2.1 µL/min/mg.

Question: What about the “Sulfate Appearance” value (Lung S9 metabolism) of the same molecule?
Answer: The value was “Yes”.

Question: And the IC50 ([1]; PBMC, 48 h)?
Answer: Its IC50 is 158 nM.

Question: Which results are given for CCc1cc(O)ccc1-c1ccc2c(-c3nc4c([nH]3)CN(C)[C@H](C(=O)N3CCN(CCO)C[C@H]3C)C4)n[nH]c2c1 [Compound 5, ((S)-2-(6-(2-ethyl-4-hydroxyphenyl)-1H-indazol-3-yl)-5-methyl-4,5,6,7-tetrahydro-3H-imidazo[4,5-c]pyridin-6-yl)((R)-4-(2-hydroxyethyl)-2-methylpiperazin-1-yl)methanone]?
Answer: Tyk2 pKi (Tyk2): 9.2; Compound Remaining at 60 min (%) (Lung S9 metabolism): 80%; microsomal CLint at 1 µM (Lung S9 metabolism): 3.7 µL/min/mg; Sulfate Appearance (Lung S9 metabolism): Yes; IC50 ([1]; PBMC, 48 h): 31.6 nM

Question: Which “Tyk2 pKi” value (Tyk2) does the source give for CCc1cc(O)ccc1-c1ccc2c(-c3nc4c([nH]3)CN(C(C)C)[C@H](C(=O)N3CC[C@H](N(C)C)C3)C4)n[nH]c2c1 [Compound 6, ((S)-3-(dimethylamino)pyrrolidin-1-yl)((S)-2-(6-(2-ethyl-4-hydroxyphenyl)-1H-indazol-3-yl)-5-isopropyl-4,5,6,7-tetrahydro-3H-imidazo[4,5-c]pyridin-6-yl)methanone] here?
Answer: The value was 9.0.

Question: And the “Compound Remaining at 60 min (%)” value (Lung S9 metabolism)?
Answer: The value was 82%.

Question: What about the microsomal CLint at 1 µM (Lung S9 metabolism) of the same molecule?
Answer: The microsomal CLint at 1 µM was 3.4 µL/min/mg.

Question: What about the “Sulfate Appearance” value (Lung S9 metabolism) of the same molecule?
Answer: The value was “Yes”.

Question: And the IC50 ([1]; PBMC, 48 h)?
Answer: Its IC50 is 158 nM.

Question: What does the source list for CCCN1Cc2[nH]c(-c3n[nH]c4cc(-c5cc(F)c(O)cc5CC)ccc34)nc2C[C@H]1C(=O)N1CCN(CCO)CC1 [Compound C-1, (S)-(2-(6-(2-ethyl-5-fluoro-4-hydroxyphenyl)-1H-indazol-3-yl)-5-propyl-4,5,6,7-tetrahydro-3H-imidazo[4,5-c]pyridin-6-yl)(4-(2-hydroxyethyl)piperazin-1-yl)methanone, reference compound]?
Answer: Tyk2 pKi (Tyk2; [2]): 9.1; Compound Remaining at 60 min (%) (Lung S9 metabolism): 29%; microsomal CLint at 1 µM (Lung S9 metabolism): 20.8 µL/min/mg; Sulfate Appearance (Lung S9 metabolism): Yes; IC50 [1, 3]: 100 nM

Question: Which results are given for CCCN1Cc2[nH]c(-c3n[nH]c4cc(-c5cc(F)c(O)cc5CC)ccc34)nc2C[C@H]1C(=O)N1C[C@@H]2C[C@H]1CN2C [Compound C-2, ((S)-2-(6-(2-ethyl-5-fluoro-4-hydroxyphenyl)-1H-indazol-3-yl)-5-propyl-4,5,6,7-tetrahydro-3H-imidazo[4,5-c]pyridin-6-yl)((1S,4S)-5-methyl-2,5-diazabicyclo-[2.2.1]heptan-2-yl)methanone, reference compound]?
Answer: Tyk2 pKi (Tyk2; [2]): 9.5; Compound Remaining at 60 min (%) (Lung S9 metabolism): 3%; microsomal CLint at 1 µM (Lung S9 metabolism): 61 µL/min/mg; Sulfate Appearance (Lung S9 metabolism): Yes; IC50 [1, 3]: 251 nM

Question: Which “Tyk2 pKi” value (Tyk2; [2]) does the source give for CCc1cc(O)c(F)cc1-c1ccc2c(-c3nc4c([nH]3)CN(C)[C@H](C(=O)N3CCN(C)C[C@@H]3C)C4)n[nH]c2c1 [Compound C-3, ((S)-2,4-dimethylpiperazin-1-yl)((S)-2-(6-(2-ethyl-5-fluoro-4-hydroxyphenyl)-1H-indazol-3-yl)-5-methyl-4,5,6,7-tetrahydro-3H-imidazo[4,5-c]pyridin-6-yl)methanone, reference compound] here?
Answer: Its value is 9.3.

Question: What about the “Compound Remaining at 60 min (%)” value (Lung S9 metabolism) of the same molecule?
Answer: The value was 14%.

Question: What about the microsomal CLint at 1 µM (Lung S9 metabolism) of the same molecule?
Answer: The microsomal CLint at 1 µM was 33.2 µL/min/mg.

Question: And the “Sulfate Appearance” value (Lung S9 metabolism)?
Answer: Its value is “Yes”.

Question: And the IC50 [1, 3]?
Answer: The IC50 was 100 nM.
